{"source": "PubChem BioAssay (NCI)", "assay_in_all_cases": "NCI tumour cell line growth inhibition, 48 h", "key": {"OVCAR-3 ovarian": {"test_system": "OVCAR-3 ovarian"}, "OVCAR-8 ovarian": {"test_system": "OVCAR-8 ovarian"}, "786-0 renal": {"test_system": "786-0 renal"}, "A549 NSCLC": {"test_system": "A549 NSCLC"}, "SNB-75 CNS": {"test_system": "SNB-75 CNS"}, "SF-268 CNS": {"test_system": "SF-268 CNS"}, "NCI-H226 lung": {"test_system": "NCI-H226 lung"}, "PC-3 prostate": {"test_system": "PC-3 prostate"}, "DU-145 prostate": {"test_system": "DU-145 prostate"}, "CCRF-CEM leukemia": {"test_system": "CCRF-CEM leukemia"}}, "note": "Where “and” joins values, the source holds several entries; their conditions need not be identical. Equal values may be shown once.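 Five concentrations, 48 hours, 96-well plates. Abbreviation: GI50, concentration required for 50% inhibition of growth. The concentration for full growth arrest is given as TGI.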"}
{"molecule": "COc1cc(C2c3cc4c(cc3[C@@H](Nc3ccc(N(C)C)cc3)[C@H]3COC(=O)C23)OCO4)cc(OC)c1O", "note": "(some centres not stated)", "values": [{"measurement": "TGI", "setting": "OVCAR-3 ovarian", "result": 16.9, "unit": "µM"}, {"measurement": "GI50", "setting": "OVCAR-8 ovarian", "result": 1.78, "unit": "µM"}, {"measurement": "TGI", "setting": "OVCAR-8 ovarian", "result": "7.97 µM and 24.9 µM"}, {"measurement": "GI50", "setting": "786-0 renal", "result": 0.362, "unit": "µM"}, {"measurement": "TGI", "setting": "786-0 renal", "result": "1.37 µM and 4.91 µM"}, {"measurement": "GI50", "setting": "A549 NSCLC", "result": 0.173, "unit": "µM"}, {"measurement": "TGI", "setting": "A549 NSCLC", "result": "2.02 µM and 3.09 µM"}, {"measurement": "GI50", "setting": "SNB-75 CNS", "result": 0.881, "unit": "µM"}, {"measurement": "TGI", "setting": "SNB-75 CNS", "result": "9.26 µM and 10.9 µM"}, {"measurement": "GI50", "setting": "SF-268 CNS", "result": 3.13, "unit": "µM"}, {"measurement": "TGI", "setting": "SF-268 CNS", "result": "4.32 µM and 16.6 µM"}, {"measurement": "GI50", "setting": "NCI-H226 lung", "result": 0.3, "unit": "µM"}]}
{"molecule": "CC[C@H](C)[C@H](NC(=O)c1cnccn1)C(=O)N(C)[C@H](C[C@@H](OC(C)=O)c1nc(C(=O)N[C@@H](Cc2ccccc2)C[C@H](C)C(=O)OC)cs1)C(C)C", "values": [{"measurement": "GI50", "setting": "OVCAR-3 ovarian", "result": 0.665, "unit": "µM"}, {"measurement": "TGI", "setting": "OVCAR-3 ovarian", "result": 1.62, "unit": "µM"}, {"measurement": "GI50", "setting": "OVCAR-8 ovarian", "result": 1.68, "unit": "µM"}, {"measurement": "TGI", "setting": "OVCAR-8 ovarian", "result": "> 33.3", "unit": "µM"}, {"measurement": "GI50", "setting": "786-0 renal", "result": 1.71, "unit": "µM"}, {"measurement": "TGI", "setting": "786-0 renal", "result": "> 21.9", "unit": "µM"}, {"measurement": "GI50", "setting": "PC-3 prostate", "result": 1.36, "unit": "µM"}, {"measurement": "TGI", "setting": "PC-3 prostate", "result": "> 33.3", "unit": "µM"}, {"measurement": "GI50", "setting": "DU-145 prostate", "result": 1.23, "unit": "µM"}, {"measurement": "TGI", "setting": "DU-145 prostate", "result": "> 33.3", "unit": "µM"}, {"measurement": "GI50", "setting": "A549 NSCLC", "result": 3.22, "unit": "µM"}, {"measurement": "TGI", "setting": "A549 NSCLC", "result": "> 33.3", "unit": "µM"}, {"measurement": "GI50", "setting": "SF-268 CNS", "result": 1.66, "unit": "µM"}, {"measurement": "TGI", "setting": "SF-268 CNS", "result": "> 33.3", "unit": "µM"}, {"measurement": "GI50", "setting": "CCRF-CEM leukemia", "result": 1.15, "unit": "µM"}, {"measurement": "TGI", "setting": "CCRF-CEM leukemia", "result": "> 33.3", "unit": "µM"}, {"measurement": "GI50", "setting": "NCI-H226 lung", "result": 4.74, "unit": "µM"}, {"measurement": "TGI", "setting": "NCI-H226 lung", "result": "> 33.3", "unit": "µM"}]}
{"molecule": "CSc1nc2c(c(O)c(C)c(=O)n2C2OC(COC(C)=O)C(OC(C)=O)C(OC(C)=O)C2OC(C)=O)c(=O)n1C", "note": "(configuration not stated)", "values": [{"measurement": "TGI", "setting": "OVCAR-3 ovarian", "result": "> 100", "unit": "µM"}, {"measurement": "TGI", "setting": "OVCAR-8 ovarian", "result": "> 100", "unit": "µM"}, {"measurement": "TGI", "setting": "786-0 renal", "result": "> 100", "unit": "µM"}, {"measurement": "TGI", "setting": "A549 NSCLC", "result": "> 100", "unit": "µM"}, {"measurement": "TGI", "setting": "SNB-75 CNS", "result": "> 100", "unit": "µM"}, {"measurement": "TGI", "setting": "SF-268 CNS", "result": "> 100", "unit": "µM"}, {"measurement": "TGI", "setting": "CCRF-CEM leukemia", "result": "> 100", "unit": "µM"}, {"measurement": "TGI", "setting": "NCI-H226 lung", "result": "> 100", "unit": "µM"}]}
{"molecule": "O=C(C(=O)c1ccc(Cc2ccc(C(=O)C(=O)c3ccccc3)cc2)cc1)c1ccccc1", "values": [{"measurement": "TGI", "setting": "OVCAR-3 ovarian", "result": "> 100", "unit": "µM"}, {"measurement": "TGI", "setting": "OVCAR-8 ovarian", "result": "> 100", "unit": "µM"}, {"measurement": "TGI", "setting": "786-0 renal", "result": "> 100", "unit": "µM"}, {"measurement": "TGI", "setting": "A549 NSCLC", "result": "> 100", "unit": "µM"}, {"measurement": "TGI", "setting": "SNB-75 CNS", "result": "> 100", "unit": "µM"}, {"measurement": "TGI", "setting": "SF-268 CNS", "result": "> 100", "unit": "µM"}, {"measurement": "TGI", "setting": "CCRF-CEM leukemia", "result": "> 100", "unit": "µM"}, {"measurement": "TGI", "setting": "NCI-H226 lung", "result": "> 100", "unit": "µM"}]}
{"molecule": "O=c1nc(-c2ccccc2)c2c3c(cccn13)CCC2", "values": [{"measurement": "TGI", "setting": "OVCAR-3 ovarian", "result": "> 100", "unit": "µM"}, {"measurement": "TGI", "setting": "OVCAR-8 ovarian", "result": "> 100", "unit": "µM"}, {"measurement": "TGI", "setting": "786-0 renal", "result": "> 100", "unit": "µM"}, {"measurement": "TGI", "setting": "A549 NSCLC", "result": "> 100", "unit": "µM"}, {"measurement": "TGI", "setting": "SNB-75 CNS", "result": "> 100", "unit": "µM"}, {"measurement": "TGI", "setting": "SF-268 CNS", "result": "> 100", "unit": "µM"}, {"measurement": "TGI", "setting": "CCRF-CEM leukemia", "result": "> 100", "unit": "µM"}, {"measurement": "TGI", "setting": "NCI-H226 lung", "result": "> 100", "unit": "µM"}]}
{"molecule": "O=C1c2ccccc2N2OC3(N4CCCC4)CCCC3C12c1ccccc1", "note": "(configuration not stated)", "values": [{"measurement": "TGI", "setting": "OVCAR-8 ovarian", "result": "> 100", "unit": "µM"}, {"measurement": "TGI", "setting": "786-0 renal", "result": "> 100", "unit": "µM"}, {"measurement": "TGI", "setting": "A549 NSCLC", "result": "> 100", "unit": "µM"}, {"measurement": "TGI", "setting": "SNB-75 CNS", "result": "> 100", "unit": "µM"}, {"measurement": "TGI", "setting": "SF-268 CNS", "result": "> 100", "unit": "µM"}, {"measurement": "TGI", "setting": "CCRF-CEM leukemia", "result": "> 100", "unit": "µM"}, {"measurement": "TGI", "setting": "NCI-H226 lung", "result": "> 100", "unit": "µM"}]}
{"molecule": "COc1ccc(-n2nnc3c(sc4ccccc43)c2=O)cc1", "values": [{"measurement": "GI50", "setting": "786-0 renal", "result": 3.61, "unit": "µM"}, {"measurement": "TGI", "setting": "786-0 renal", "result": "> 100", "unit": "µM"}, {"measurement": "GI50", "setting": "PC-3 prostate", "result": "> 100", "unit": "µM"}, {"measurement": "TGI", "setting": "PC-3 prostate", "result": "> 100", "unit": "µM"}, {"measurement": "GI50", "setting": "DU-145 prostate", "result": "> 100", "unit": "µM"}, {"measurement": "TGI", "setting": "DU-145 prostate", "result": "> 100", "unit": "µM"}, {"measurement": "GI50", "setting": "SF-268 CNS", "result": "> 100", "unit": "µM"}, {"measurement": "TGI", "setting": "SF-268 CNS", "result": "> 100", "unit": "µM"}]}
{"molecule": "CC(=O)N(CCN)CCN", "values": [{"measurement": "TGI", "setting": "OVCAR-3 ovarian", "result": "> 10", "unit": "µM"}, {"measurement": "TGI", "setting": "OVCAR-8 ovarian", "result": "> 10", "unit": "µM"}, {"measurement": "TGI", "setting": "786-0 renal", "result": "> 10", "unit": "µM"}, {"measurement": "TGI", "setting": "A549 NSCLC", "result": "> 10", "unit": "µM"}, {"measurement": "TGI", "setting": "SNB-75 CNS", "result": "> 100", "unit": "µM"}, {"measurement": "TGI", "setting": "SF-268 CNS", "result": "> 100", "unit": "µM"}, {"measurement": "TGI", "setting": "CCRF-CEM leukemia", "result": "> 10", "unit": "µM"}]}
{"molecule": "COc1ccc(C(C2=C(C)C(=O)c3ccccc3C2=O)c2ccc(C(C)C)cc(=O)c2O)cc1", "note": "(configuration not stated)", "values": [{"measurement": "TGI", "setting": "OVCAR-3 ovarian", "result": 8.54, "unit": "µM"}, {"measurement": "TGI", "setting": "OVCAR-8 ovarian", "result": 45.7, "unit": "µM"}, {"measurement": "TGI", "setting": "786-0 renal", "result": 6.26, "unit": "µM"}, {"measurement": "TGI", "setting": "A549 NSCLC", "result": 13.4, "unit": "µM"}, {"measurement": "TGI", "setting": "SNB-75 CNS", "result": 6.47, "unit": "µM"}, {"measurement": "TGI", "setting": "SF-268 CNS", "result": 23, "unit": "µM"}, {"measurement": "TGI", "setting": "CCRF-CEM leukemia", "result": "> 100", "unit": "µM"}, {"measurement": "TGI", "setting": "NCI-H226 lung", "result": 4.94, "unit": "µM"}]}
{"molecule": "Fc1cccc(Cl)c1C1SCc2nc3ccccc3n21", "note": "(configuration not stated)", "values": [{"measurement": "TGI", "setting": "OVCAR-3 ovarian", "result": 53.2, "unit": "µM"}, {"measurement": "TGI", "setting": "OVCAR-8 ovarian", "result": "> 100", "unit": "µM"}, {"measurement": "TGI", "setting": "786-0 renal", "result": "> 100", "unit": "µM"}, {"measurement": "TGI", "setting": "A549 NSCLC", "result": "> 100", "unit": "µM"}, {"measurement": "TGI", "setting": "SNB-75 CNS", "result": "> 100", "unit": "µM"}, {"measurement": "TGI", "setting": "SF-268 CNS", "result": "> 100", "unit": "µM"}, {"measurement": "TGI", "setting": "CCRF-CEM leukemia", "result": "> 100", "unit": "µM"}, {"measurement": "TGI", "setting": "NCI-H226 lung", "result": "> 100", "unit": "µM"}]}
